{"source": "patent US20200115698A1", "about": "“PHARMACEUTICAL COMBINATION FOR TREATMENT OF FABRY DISEASE AND USE THEREOF” (MEIJI PHARMACEUTICAL UNIVERSITY, priority 2017, published 2020)", "key": {"[1]": {"test_system": "cultivated fibroblast derived from a Fabry disease model mouse", "test": "Simultaneous addition of α-NAGA mutant and DGJ to cultivated fibroblast derived from Fabry disease model mouse", "type": "cell-based", "details": "1 μg/mL α-NAGA mutant plus 0-500 μM DGJ, 24 hours; FIG. 5", "method": "A cultivated fibroblast derived from a Fabry disease model mouse was cultured at 37° C. under a 5% carbon dioxide environment with use of a DMEM medium to which a 10% fetal calf serum and an antibiotic substance had been added. First, concentration dependence of DGJ with respect to uptake efficiency of an α-NAGA mutant was analyzed. The cells were seeded to a 12-well plate at 1.0×10^5 cells/well. The medium was exchanged with an F-10 medium that contained 1 μg/mL of an α-NAGA mutant, any of concentrations (0, 1, 10, 100, and 500 μM) of DGJ, a 10% fetal calf serum, and an antibiotic substance, and cultivation was carried out for 24 hours. […] The homogenate thus obtained was subjected to centrifugal separation under conditions of 4° C. and 12,000 rpm, and the obtained supernatant liquid was used as samples for enzyme activity measurement, protein quantification, and Western blotting. […] Then, released 4-methylumbelliferone was measured at an excitation wavelength of 355 nm and at a fluorescence wavelength of 460 nm with use of Wallac 1420 ARVO MX Multilabel Counter (Perkin Elmer, Waltham, Mass.). Protein quantification was carried out with Micro BCA method (Micro BCA (trademark) Protein Assay Reagent Kit: Pierce) while using a concentration of bovine serum albumin (Albumin standard: Pierce Biotechnology, Inc., Rockford, Ill.) as a standard. […]"}, "[2]": {"test_system": "cultivated fibroblast derived from a patient of Fabry disease", "test": "Simultaneous addition of α-NAGA mutant and DGJ to cultivated fibroblast derived from patient of Fabry disease", "type": "cell-based, human", "method": "A cultivated fibroblast derived from a patient of Fabry disease was cultured at 37° C. under a 5% carbon dioxide environment with use of an F-10 medium to which a 10% fetal calf serum and an antibiotic substance had been added. First, concentration dependence of DGJ with respect to uptake efficiency of an α-NAGA mutant was analyzed. The cells were seeded to a 12-well plate at 1.0×10^5 cells/well. Then, the medium was exchanged with a medium containing 1 μg/mL of an α-NAGA mutant and any of concentrations (0, 1, 10, and 100 μM) of DGJ, and cultivation was carried out for 24 hours. The cells were cleaned three times with PBS, then treated with use of trypsin, and then collected. 20 mM MES (pH 6.0) containing Complete Mini (Roche) was added to the collected cells, and the cells were then subjected to an ultrasonic treatment. The homogenate thus obtained was subjected to centrifugal separation under conditions of 4° C. and 12,000 rpm, and the obtained supernatant liquid was used as samples for enzyme activity measurement, protein quantification, and Western blotting.\nNext, in order to confirm time dependence, 1 μg/mL of an α-NAGA mutant and 10 μM of DGJ were added to the cells, and cultivation was carried out for 24 hours, 48 hours, and 72 hours. Then, enzyme activity measurement, protein quantification, and Western blotting were carried out. […]"}}, "data": [{"smiles": "OCC1NCC(O)C(O)C1O", "note": "[DGJ, (2R,3S,4R,5S)-2-(hydroxymethyl)piperdine-3,4,5-triol]", "values": [{"measurement": "α-NAGA mutant enzyme activity in cells", "setting": "[1]", "result": "enzyme activity was improved"}, {"measurement": "α-NAGA mutant enzyme activity in cells", "setting": "[2]; 1 μg/mL α-NAGA mutant plus 0-100 μM DGJ 24 hours, or 10 μM DGJ 24-72 hours, FIG. 6(a), 7(a)", "result": "enzyme activity was improved"}, {"measurement": "amount of protein of the α-NAGA mutant taken in a cell (Western blotting)", "setting": "[2]; simultaneous addition of DGJ versus no DGJ, FIG. 6(b), 7(b)", "result": "confirmed to be increased"}]}]}
